According to paper PMC7848139, “Novel Hybrid CHC from β-carboline and N-Hydroxyacrylamide Overcomes Drug-Resistant Hepatocellular Carcinoma by Promoting Apoptosis, DNA Damage, and Cell Cycle Arrest” (Frontiers in Pharmacology, 2021):

Experiments:
Bel7402/5-FU = experiment: MTT antiproliferative assay, Bel7402/5-FU; format: cell-based; conditions: Homo sapiens, drug-resistant HCC cells, 72 h, mean ± SD of three experiments, read-out: In vitro antiproliferative activity (IC50) Bel7402/5-FU
Description: (§1) Briefly, appropriate cells (1 × 10^4 cells/mL) were placed into 96-well plates in 100 μL of DMEM medium overnight. Then adding 100 μL of evaluated compounds into individual well for 72 h while 0.1% DMSO aqueous solution was treated as the negative control. After incubation with 30 μl MTT (5 mg/mL) for 4 h in all well, and ELISA plate reader measured absorbance of each well at 570 nm. Then calculating cytotoxicity effect of evaluated compounds through the formula: Cell inhibitory percentage (%) = (1−OD of treatment group/OD of control) × 100%.

[1] = test system: Ac-histone H3, Ac-histone H4, Ac-α-tubulin in Bel7402/5-FU cells; experiment: Western blotting of acetylated histone H3, H4 and α-tubulin; format: cell-based, human; conditions: 2.0 and 5.0 μM, 72 h
Description: (§2) The HDAC, autophagy and apoptosis-related proteins were analyzed according to Western blotting assay. […]. And anti-Ac-histone H3, anti-Ac-histone H4, anti-Ac-α-tubulin, anti-Bax, anti-Bcl2, anti-H2AX (S139ph), anti-CDK1, anti-cyclin B, and anti-β-actin antibodies (Cell Signaling Technology, MA, United States) detected the target proteins after membranes were blocked with 5% fat-free milk. The peroxidase-conjugated secondary antibodies detected the bound antibodies for 1 h and visualized according to improved chemiluminescent reagent.
The data (mean ± SD) were obtained from three independent assays. *p < 0.01 vs. control.

[2] = test system: cyclin B and CDK1 in Bel7402/5-FU cells; experiment: Western blotting of cyclin B and CDK1; format: cell-based, human; conditions: 2.0 and 5.0 μM, 72 h, immunoblotting
Description: as §2
. Values (mean ± SD) were obtained from three separate experiments. *p < 0.01 vs. control.

[3] = test system: Bax, Bcl-2, caspase-3 in Bel7402/5-FU cells; experiment: Western blotting of apoptosis-related proteins; format: cell-based, human; conditions: 72 h
Description: as §2
[…]; (B) The relative expression levels of each protein (Bax, Bcl-2, pro-caspase-3, and cleaved caspase-3) were quantitatively analyzed using β-actin as reference. The data are presented as the mean ± SD of three separated assays. *p < 0.01 vs. control.

recombinant human HDAC6 = target: T1, recombinant human HDAC6 (Homo sapiens, UniProt Q9UBN7); experiment: HDAC fluorimetric assay, HDAC6; format: biochemical
T1 construct: purchased Enzo Life Sciences Inc
T1 sequence (Q9UBN7 1-1215): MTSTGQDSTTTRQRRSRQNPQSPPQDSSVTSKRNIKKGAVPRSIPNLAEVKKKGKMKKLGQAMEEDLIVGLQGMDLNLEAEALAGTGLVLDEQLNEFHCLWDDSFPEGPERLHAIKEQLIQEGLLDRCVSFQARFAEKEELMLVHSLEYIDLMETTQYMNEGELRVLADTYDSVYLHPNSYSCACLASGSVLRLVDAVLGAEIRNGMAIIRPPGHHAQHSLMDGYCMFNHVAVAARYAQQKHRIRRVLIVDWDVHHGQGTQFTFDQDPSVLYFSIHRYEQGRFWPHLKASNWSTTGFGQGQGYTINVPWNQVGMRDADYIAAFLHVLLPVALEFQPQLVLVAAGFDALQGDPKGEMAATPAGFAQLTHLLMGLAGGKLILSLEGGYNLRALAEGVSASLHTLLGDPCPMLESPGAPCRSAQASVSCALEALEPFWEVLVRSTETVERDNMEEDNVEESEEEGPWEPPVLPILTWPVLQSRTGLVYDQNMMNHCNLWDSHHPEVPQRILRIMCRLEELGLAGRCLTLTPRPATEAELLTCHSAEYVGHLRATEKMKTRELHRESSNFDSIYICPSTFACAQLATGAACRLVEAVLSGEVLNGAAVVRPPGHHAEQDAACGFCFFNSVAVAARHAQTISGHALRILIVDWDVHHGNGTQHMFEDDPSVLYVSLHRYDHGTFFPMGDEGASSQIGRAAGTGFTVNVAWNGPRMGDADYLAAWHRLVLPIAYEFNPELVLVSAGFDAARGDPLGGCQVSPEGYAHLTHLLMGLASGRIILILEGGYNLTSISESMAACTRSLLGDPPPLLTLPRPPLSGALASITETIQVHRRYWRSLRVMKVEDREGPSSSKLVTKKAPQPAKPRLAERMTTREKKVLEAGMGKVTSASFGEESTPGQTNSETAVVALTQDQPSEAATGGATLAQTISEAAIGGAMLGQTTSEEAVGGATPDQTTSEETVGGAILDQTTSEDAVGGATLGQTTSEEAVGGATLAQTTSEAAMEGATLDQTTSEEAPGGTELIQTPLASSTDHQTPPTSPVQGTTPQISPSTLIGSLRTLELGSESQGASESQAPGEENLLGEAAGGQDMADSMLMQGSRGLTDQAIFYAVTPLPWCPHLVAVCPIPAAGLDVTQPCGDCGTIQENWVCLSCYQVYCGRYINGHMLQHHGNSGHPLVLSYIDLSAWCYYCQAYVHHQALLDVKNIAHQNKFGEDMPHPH
Description: (§3) The assay was conducted according to the HDAC1/3/6/8 assay kit (Enzo Life Sciences Inc.). Each different concentrations of evaluated compounds were, respectively, incubated with each HDAC1/3/6/8 at coupling of corresponding HDAC substrate (Boc-Lys (Ac)-AMC) at 37°C for 60 min. Then stopping the reaction under adding lysine developer.

Bel7402/5-FU cells = experiment: Cell cycle analysis by flow cytometry; format: cell-based, human; conditions: 2.0 and 5.0 μM, 72 h
Description: The collected cells were ﬁxed in 70% ethanol at 4°C overnight, and then incubated with RNase A and using PI (Sigma-Aldrich) to stain. Flow cytometry evaluated the percent of Deoxyribonucleic acid (DNA) on ﬂow cytometer (Beckman Coulter). The ModFit LT (Verity, Software House, Topsham, ME, United States) analyzed distribution of cell cycles.
FIGURE 9 CHC caused G2/M arrest in Bel7402/5-FU cells (A) Bel7402/5-FU cells were treated with CHC at different concentrations (0, 2.0, and 5.0 μM) for 72 h; (B) Quantification of cell distribution per phase. Values (mean ± SD) were obtained from three separate experiments. *p < 0.01 vs. control.

HCT116 = experiment: MTT antiproliferative assay, HCT116; format: cell-based; conditions: Homo sapiens, HCT-116, 72 h, mean ± SD of three experiments, read-out: In vitro antiproliferative activity (IC50) HCT116
Description: as §1

Huh7 = experiment: MTT antiproliferative assay, Huh7; format: cell-based; conditions: Homo sapiens, Huh-7, 72 h, mean ± SD of three experiments, read-out: In vitro antiproliferative activity (IC50) Huh7
Description: as §1

recombinant human HDAC3 = target: T2, recombinant human HDAC3 (Homo sapiens, UniProt O15379); experiment: HDAC fluorimetric assay, HDAC3; format: biochemical; conditions: mean ± SD of three experiments
T2 construct: purchased Enzo Life Sciences Inc
T2 sequence (O15379 whole entry): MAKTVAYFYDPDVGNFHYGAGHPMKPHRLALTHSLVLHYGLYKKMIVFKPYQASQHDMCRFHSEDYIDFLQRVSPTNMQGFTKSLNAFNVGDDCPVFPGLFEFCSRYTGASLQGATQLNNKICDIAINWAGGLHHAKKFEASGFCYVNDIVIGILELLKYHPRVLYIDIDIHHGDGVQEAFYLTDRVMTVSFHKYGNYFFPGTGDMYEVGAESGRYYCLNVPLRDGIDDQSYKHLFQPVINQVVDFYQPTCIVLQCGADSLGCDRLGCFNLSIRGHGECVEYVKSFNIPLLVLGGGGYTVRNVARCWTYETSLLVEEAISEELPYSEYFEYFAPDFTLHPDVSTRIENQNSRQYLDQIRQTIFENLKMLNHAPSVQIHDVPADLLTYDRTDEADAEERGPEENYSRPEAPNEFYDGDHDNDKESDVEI
T2 sequence (O75376 395-489 partner limits assumed): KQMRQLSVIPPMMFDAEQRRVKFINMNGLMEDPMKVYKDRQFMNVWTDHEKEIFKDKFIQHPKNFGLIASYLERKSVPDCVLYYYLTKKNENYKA
Description: as §3

IC50 (Bel7402/5-FU): 2170 ± 350 nM
IC50 on HDAC6 relative to SAHA (recombinant human HDAC6; compared with SAHA): eight-fold lower
IC50 (recombinant human HDAC6; mean ± SD of three experiments): 7.6 ± 1 nM
fold lower IC50 on HDAC6 than on HDAC3 (recombinant human HDAC6; selectivity HDAC6 over HDAC3): 18 fold
IC50 (HCT116): 2050 ± 190 nM
IC50 (Huh7): 2890 ± 320 nM
IC50 (recombinant human HDAC3): 134 ± 16 nM
Compound: CN(C)c1ccc(-c2nc(C(=O)NCc3ccc(/C=C/C(=O)NO)cc3)cc3c2[nH]c2ccccc23)cc1 [CHC, (E)-N-(4-(3-(hydroxyamino)-3-oxoprop-1-en-1-yl)benzyl)-1-(4-dimethylaminophenyl)-9H-pyrido [3,4-b]indole-3-carboxamide]
acetylation of H3, H4 and α-tubulin [1]: promoted the acetylation of H3, H4, and α-tubulin with increasing dose
expression of cyclin B and CDK1 [2]: downregulated the expression of cyclin B and CDK1
expression of Bax, Bcl-2 and cleavage of caspase-3 [3]: significantly upregulate the expression of Bax and cleavage of caspase-3 and downregulate the expression of Bcl-2
cell cycle arrest (Bel7402/5-FU cells): significantly induced cell cycle arrest at the G2/M phase in a dose-dependent manner
